Entries after “also recorded” stand apart in the source; their conditions may differ. Where two headings read alike, the source gives them in different places. Starred links: 1 amine or outer side, 2 acyl side, 3 side chain; linkers in the order of their positions; H or OH if unused. Primed or numbered codes have the meaning given here. No end group written: not given here. *: point of attachment. PEG5′ = linker from Fmoc-PEG5-OH (18-amino-4,7,10,13-tetraoxaoctadecanoic acid), O=C(CCOCCOCCOCCOCCCCCN[*:1])[*:2]; fluorescein = fluorescein label on the N-terminal amino group, attached via an aminohexanoic acid linker; FITC = O=C1OC2(c3ccc(O)cc3Oc3cc(O)ccc32)c2ccc(NC(=S)*)cc21; Biotin = O=C1N[C@H]2[C@H](CS[C@H]2CCCCC(=O)*)N1; Ahx = NCCCCCC(=O)O
Columns and labels:
Gal1/C-RBD = test: FLIM-FRET Gal1/C-RBD interaction in HEK cells; format: cell-based, rat Gal1; C-RBD of human C-Raf; HEK cells; conditions: mGFP-Gal1 / mRFP-C-RBD 1:3, expression (24 h) of plasmid or compound, n = 3
HEK cells (pERK, pAkt) = format: cell-based, human; conditions: 2 h, EGF 200 ng/mL 10 min; n = 3–8
H-RasG12V nanoclustering [1] = test: H-RasG12V nanoclustering-BRET in HEK cells; format: cell-based, human; conditions: n = 3
Gal1 [2] = conditions: residues 22–45 of L5UR, opposite side of the carbohydrate binding site of Gal1; ref 38 (Elantak et al.); cited from earlier work
From the text: (Supplementary Fig. 2a). […] We hypothesized that the 52-mer L5UR peptide, which was derived from a Gal1 interaction partner, could act as a Raf-RBD/Gal1-interface inhibitor. Its residues 22–45 were previously ... || page 9: Question 3-2. The authors measure the affinity of L5UR to BRAF GST-RBD using fluorescence polarization. The affinity is an increase is 40-fold over the affinity of this peptide to Gal1 – this is a significant enhancement, do the authors have an explanation for this? […] In the pull-downs containing both Gal1 and GST-RBD both proteins are pulled down to equal levels, again this is surprising as one would exp ...

H-RasG12V nanoclustering [3] = test: FLIM-FRET H-RasG12V nanoclustering in HEK cells; format: cell-based, HEK cells; rat Gal1; conditions: donor:acceptor 1:3, expression (24 h), n = 3
H-RasG12V nanoclustering [4] = test: Electron microscopy-based analysis of H-RasG12V nanoclustering in BHK cells; format: cell-based, baby hamster kidney (BHK) cells; conditions: membrane sheets of Gal1-expressing BHK cells; n = 15
From the text: To quantify the nanoclustering of a component integral to the plasma membrane (PM), the apical PM sheets of baby hamster kidney (BHK) cells expressing a GFP-tagged H-Ras construct were fixed with 4% (w/v) PFA and 0.1% (w/v) glutaraldehyde. GFP anchored to the PM sheets was probed with 4.5 nm gold particles pre-coupled to anti-GFP antibody. Following embedment with methyl cellulose, the PM sheets were imaged using transmission electron microscopy (JEOL JEM-1400). Using the coordinates of every gold particle, Ripley’s K-function calculated the extent of nanoclustering of gold particles within a selected 1 μm^2 PM area: K(r)=An^−2∑i≠jwij1(∥xi−xj∥≤r) Lr−r=Kr/π−r where n gold particles populate in an intact area of A; r is the length between 1 and 240 nm; || ^. || indicates Euclidean distance where 1(^.) = 1 if ||xi − xj|| ≤ r and 1(^.) = 0 if ||xi − xj|| > r; K(r) specifies the univariate K-function. wij^−1 is a parameter used for an unbiased edge correction and characterizes the proportion of the circumference of a circle that has the center at xi and radius ||xi-xj||. Monte Carlo simulations estimate the 99% confidence interval (99% C.I.), which is then used to linearly transform K(r) into L(r) − r. On a nanoclustering curve of L(r) − r vs. r, the peak L(r) − r value is used as summary statistics for nanoclustering and is termed as Lmax. […]

His-tagged Gal1 = test: Competitive fluorescence polarization, displacement of F-L5UR from His-tagged Gal1; format: binding; conditions: F-L5UR (5 nM), Gal1 (5 µM); n = 2
GST = test: Direct fluorescence polarization binding of F-L5UR to GST (control); conditions: 10 nM F-L5UR, n = 3
Description: For the direct binding assay, the GST-B-RBD, or GST, was 2-fold diluted in an assay buffer composed of 50 mM Tris HCl pH 7.4, 50 mM NaCl, 5 mM DTT, and 0.005% (v/v) Tween 20 in a black low volume, round bottom 384-well plate (Corning, #4514). Then 10 nM F-L5UR peptide was added to each well and incubated for 20 min at ~22 °C on a horizontal shaker. The fluorescence polarization measurement was performed on the Clariostar (BMG Labtech) plate reader, using a fluorescence polarization module (λexcitation 482 ± 8 nm and λemission 530 ± 20 nm). The milli fluorescence polarization, mP, was determined from the measured fluorescence intensities, calculated according to, mP=1000×Ih−Iv/Ih+Iv where Iv and Ih are the fluorescence emission intensities detected with vertical and horizontal polarization, respectively. The mP was plotted against the concentration of the GST-RBD and the KD value of the F-L5UR was calculated using a quadratic equation, y=Af+Ab−Af*Lt+KD+x−(Lt+KD+x)^2−4*Lt*x/2Lt

Gal1/B-RBD = Gal1/B-RBD (Homo sapiens, UniProt P15056); test: Gal1/B-RBD BRET in HEK cells; format: cell-based; conditions: peptide added to HEK cells, 0.1 µM to 100 µM, 2 h incubation; donor:acceptor 1:10; n ≥ 2
Gal1/B-RBD, sequence (P15056 155-227): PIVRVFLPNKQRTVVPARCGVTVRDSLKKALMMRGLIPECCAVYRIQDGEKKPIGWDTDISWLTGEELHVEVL

[5] = tested on: MIA PaCa-2 cells (pERK, pAkt); test: Immunoblot of EGF-induced pERK and pAkt in MIA PaCa-2; format: cell-based, human; conditions: intermediate concentrations, 2 h
[6] = tested on: Hs 578 T cells (pERK, pAkt); test: Immunoblot of EGF-induced pERK and pAkt in Hs 578 T; format: cell-based, human; conditions: intermediate concentrations, 2 h
Gal1 (Homo sapiens) [7] = target: Gal1 (Homo sapiens) (UniProt P09382); conditions: cited from earlier work
Gal1 (Homo sapiens) [8] = target: Gal1 (Homo sapiens) (UniProt P09382); conditions: cited from earlier work; remark: listed apart in the source
Target sequence in this assay (P09382 2-135): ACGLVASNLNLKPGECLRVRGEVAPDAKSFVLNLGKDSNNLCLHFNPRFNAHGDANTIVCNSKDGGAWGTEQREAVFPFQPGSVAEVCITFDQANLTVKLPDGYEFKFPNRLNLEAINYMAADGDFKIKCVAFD

GST-B-RBD = GST-B-RBD (Homo sapiens, UniProt P15056); test: Pull-down with biotinylated L5UR, GST-B-RBD; format: binding; conditions: biotinylated L5UR 4 µM, proteins 2 µM; n = 3
GST-B-RBD, sequence (P15056 155-227): as the sequence (P15056 155-227) above
Description: (§1) Biotinylated L5UR (bio-L5UR) peptide was synthesized as described above with a PEG5-linker to link the biotin to the L5UR peptide. GST, GST-B-Raf-RBD (155–227), and His-Gal1 were prepared as described above. Each protein in the assay was used at 2 µM concentration, and the peptide was at 4 µM in a reaction of 150 µL. First, peptide and Gal1 were pre-incubated for 30 min at 37 °C, then GST-B-RBD or GST alone was added, and the reaction continued for another hour. Control reaction mixes contained DMSO-vehicle instead of the peptide. At the end of the reaction time, 10 µL of each sample was withdrawn for SDS-PAGE analysis as inputs. For pull-downs, 5 µL of the beads were taken per sample. To prepare the beads, an appropriate volume of the slurry was pipetted into 15 mL falcon tubes and centrifuged at 830×g for 1 min to remove the ethanol-containing supernatant. The falcon tube was topped up to 15 mL with distilled water and centrifuged for 1 min to remove water. This washing step was repeated three times. Finally, the beads were resuspended in distilled water so that the final bead volume was 4× diluted i.e., 20 µL were pipetted to each tube. […] The analysis was done by resolving the samples (8 µL of the input samples and 10 µL of the eluted material) on 4–20% gradient SDS-PAGE gels and analyzed by Western blotting. […]

Gal1 [9] = test: Pull-down with biotinylated L5UR, Gal1; format: binding; conditions: biotinylated L5UR 4 µM, proteins 2 µM; n = 3
Description: as §1

[10] = target: T1, GST-tagged B-Raf-RBD (155-227) (human, UniProt P15056 155-227); conditions: both partners purified
T1 construct: also called GST-B-RBD; GST-B-Raf-RBD; source: E. coli, purified (glutathione agarose)
T1 sequence (P15056 155-227): as above

[11] = target: T2, C-Raf-RBD (50-134), purified (human, UniProt P04049 50-134); test: fluorescence polarisation; competitive: non-labeled peptides 3-fold diluted, added to a complex of F-L5UR and RBD (methods: 5 nM and 200 nM; legend of Fig. 2e: 10 nM and 15 µM GST-B-RBD); 30 min at ~22 °C; four-parameter fit; conditions: both partners purified
T2 construct: also called C-RBD; source: E. coli, purified (glutathione agarose)

[12] = target: B-Raf-derived RBD (BRET construct) (UniProt P15056)
B-Raf-derived RBD (BRET construct), sequence (P15056 155-227): as above

[13] = target: T2, C-Raf-RBD (50-134), purified; test: fluorescence polarisation; competitive: non-labeled peptides 3-fold diluted, added to a complex of F-L5UR and RBD (methods: 5 nM and 200 nM; legend of Fig. 2e: 10 nM and 15 µM GST-B-RBD); 30 min at ~22 °C; four-parameter fit; conditions: both partners purified; remark: listed apart in the source
[14] = target: T1, GST-tagged B-Raf-RBD (155-227); test: as above; conditions: both partners purified

## CN(C)CCNC(=O)COc1c2cccc1Cc1cccc(c1OCC(=O)NCCN(C)C)Cc1cccc(c1OCC(=O)NCCN(C)C)Cc1cccc(c1OCC(=O)NCCN(C)C)C2 [OTX-008]
Gal1/C-RBD
  effect on Gal1/C-RBD FRET: neither Anginex nor OTX-008 disrupted the Gal1/C-RBD interaction

## CC(=O)Nc1cccc(-n2c(=O)n(C3CC3)c(=O)c3c(Nc4ccc(I)cc4F)n(C)c(=O)c(C)c32)c1 [trametinib, reference compound]
HEK cells (pERK, pAkt)
  pAkt levels, HEK: also upregulated by trametinib

## Ac-LLRPTAASQSRALGPGAPGGSSRSSLRSRWGRFLLQRGSWTGPRCWPRGFQS-NH2 (N-terminus and C-terminus assumed) [L5UR]
H-RasG12V nanoclustering [1]; expression (48 h), HEK cells comparatively devoid of Gal1, donor:acceptor 1:5
  effect of construct expression on H-RasG12V nanoclustering-BRET without co-expression of Gal1: very similar effects even without co-expression of Gal1
H-RasG12V nanoclustering [1]; expression (48 h), co-transfection of 200 ng Gal1 plasmid, donor:acceptor 1:5, Fig. 3c
  reduction of H-RasG12V nanoclustering-BRET: ~ 33%
Gal1 [2]
  Kd: 310 µM
H-RasG12V nanoclustering [3]; Gal1-augmented
  effect on H-RasG12V nanoclustering-FRET: decreased the Gal1-augmented H-RasG12V nanoclustering-FRET
H-RasG12V nanoclustering [3]; dimerization-deficient N-Gal1
  effect on H-RasG12V nanoclustering-FRET, N-Gal1: had no additional effect
Gal1/C-RBD
  effect on Gal1/C-RBD FRET: decreased the FRET between mGFP-Gal1 and mRFP-C-RBD
H-RasG12V nanoclustering [4]
  disruption of H-RasG12V nanoclustering (Lmax): disruption of H-RasG12V nanoclustering by L5UR- and L5UR-SNAP construct expression

## Anginex
Gal1/C-RBD
  effect on Gal1/C-RBD FRET: neither Anginex nor OTX-008 disrupted the Gal1/C-RBD interaction
His-tagged Gal1
  displacement of F-L5UR from Gal1: it can be displaced from purified His-tagged Gal1

## F-L5UR: fluorescein attached to N-terminus amino group of L5UR via aminohexanoic acid linker ({fluorescein-Ahx}-LLRPTAASQSRALGPGAPGGSSRSSLRSRWGRFLLQRGSWTGPRCWPRGFQS)
GST
  binding to GST alone: no binding to GST alone; also recorded: negligible binding

## GRKKRRQRRRPQ [TAT, 12-residue cell penetrating peptide derived from an HIV-protein, reference compound]
H-RasG12V nanoclustering [1]; peptide added to HEK cells, 0.1 µM to 100 µM, 2 h incubation, donor:acceptor 1:5, 200 ng Gal1 plasmid
  effect of peptide on H-RasG12V nanoclustering BRET: Neither the TAT-peptide alone, nor the mutant TAT-mutL5URcore, or the non-TAT peptides L5URcore and mutL5URcore decreased the BRET-signal in either assay
Gal1/B-RBD
  effect of peptide on Gal1/B-RBD BRET: Neither the TAT-peptide alone, nor the mutant TAT-mutL5URcore, or the non-TAT peptides L5URcore and mutL5URcore decreased the BRET-signal in either assay
[5]
  pERK- and/or pAkt-levels, MIA PaCa-2: apparently non-specific increase in pERK- and/or pAkt-levels
[6]
  pERK- and/or pAkt-levels, Hs 578 T: apparently non-specific increase in pERK- and/or pAkt-levels

## Gal1 (from UniProt P09382)
Gal1 (Homo sapiens) [7]
  Kd: 7 µM

## L5UR peptide 22-45 (from UniProt P15814)
Gal1 (Homo sapiens) [8]
  Kd: 310 µM

## bio-L5UR: Biotinylated L5UR with a PEG5-linker linking biotin to the L5UR peptide ({Biotin-PEG5′}-LLRPTAASQSRALGPGAPGGSSRSSLRSRWGRFLLQRGSWTGPRCWPRGFQS-NH2)
GST-B-RBD
  pull-down of GST-B-RBD: pulled down Gal1 and the GST-B-RBD independently from each other
Gal1 [9]
  pull-down of Gal1: pulled down Gal1 and the GST-B-RBD independently from each other

B1: FITC-tagged full-length L5UR (peptide, UniProt P15814 38-89, looked up)
peptide: {FITC-Ahx}-LLRPTAASQSRALGPGAPGGSSRSSLRSRWGRFLLQRGSWTGPRCWPRGFQS
notes: 52-mer L5UR: residues 38-89 of the unique region of the λ5-chain (λ5-UR) of the pre-B-cell receptor; also called F-L5UR; source: synthetic peptide; bought: Pepmic Co., China
[10]
  Kd: 7.3 ± 0.7 µM
[11]
  binding result: binds

B2: L5UR peptide, untagged, expressed in cells (peptide)
chain: LLRPTAASQSRALGPGAPGGSSRSSLRSRWGRFLLQRGSWTGPRCWPRGFQS
[12]
  reduction of Gal1-enhanced H-RasG12V nanoclustering-BRET in HEK cells on expression of the construct (it blocks Gal1/B-RBD): 33%

B3: L5UR peptide, non-labeled (peptide, UniProt P15814 38-89, looked up)
peptide: LLRPTAASQSRALGPGAPGGSSRSSLRSRWGRFLLQRGSWTGPRCWPRGFQS
notes: 52-mer L5UR: residues 38-89 of the unique region of the λ5-chain (λ5-UR) of the pre-B-cell receptor; also called full-length peptide of L5UR; source: synthetic peptide; bought: Pepmic Co., China
[13]
  IC50: 4 ± 1 µM
[14]
  IC50: 2 ± 1 µM

From publication PMC11233548 (Communications Biology, 2024)
